What all share (experiment): NCI-60 cell line screen, 48 h
Assay [1] concerns A498 renal.
For assay [2], the system named is CAKI-1 renal.
Assay [3] deals with OVCAR-3 ovarian.
The test system of assay [4] is SF-268 CNS.
Assay [5] concerns SF-539 CNS.
Assay [6] relates to SK-MEL-28 melanoma.
For assay [7], the system named is SK-MEL-5 melanoma.
Assay [8] deals with SN12C renal.
For assay [9], the system named is SNB-19 CNS.
Assay [10] deals with SR leukemia.

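Cultured in 96-well plates, cells were exposed to test compound for 48 hours across five concentrations. GI50 = concentration required for 50% inhibition of growth. Definition used: TGI = concentration required for complete inhibition of growth.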

Take `COC(=O)c1cc2c3ccccc3n3c(=O)c4cc5ccc(N(S(=O)(=O)c6ccc(C)cc6)S(=O)(=O)c6ccc(C)cc6)cc5nc4c(n1)c23`: the GI50 in assay [1] was 34.8 µM; in [2], over 100 µM; in [3], over 100 µM; in assay [4] it was 39.2 µM; in assay [5], 25.4 µM; in assay [6] it was over 100 µM. Also, the figures for the GI50 in assay [7], in assay [8] and in [9] were over 100 µM, over 100 µM and 26.6 µM, respectively. The TGI in assay [1] is 70.2 µM; in assay [2] it was over 100 µM; in [3] it was over 100 µM; in assay [4], over 100 µM; in assay [5], over 100 µM; in [6] it was over 100 µM. For the same compound, the TGI in [7] is over 100 µM; in [8], over 100 µM; in [9], 78.3 µM.
With `CC(=O)N/N=C1\CC(C)(C)C2CCC1C2` (stereo unspecified), the TGI in [1], in assay [2], in assay [3], in [4], in assay [5] and in [6] was over 100 µM each time. The TGI in [7], in [8] and in assay [9] was over 100 µM throughout.
With `O=c1c2cc(F)ccc2sc2c(N3CCNCC3)nc3ccc(F)cc3c12`, the GI50 was 1.67 µM in [1]; 1.57 µM in assay [2]; 1.73 µM in assay [3]; 1.57 µM in assay [4]; 1.72 µM in [5]; 1.74 µM in assay [6]. Moreover, the GI50 in [7] was 1.73 µM; in [8], 1.58 µM; in [9], 1.69 µM. In addition, the TGI in assay [1] came to 3.09 µM; in assay [2] it was 2.92 µM; in assay [3] it was 3.17 µM; in assay [4], 3.16 µM; in [5] it was 3.15 µM; in assay [6], 3.17 µM. Besides, the TGI was 3.11 µM in assay [7], 3.05 µM in assay [8] and 3.2 µM in [9].
On to `O=C1CC2C(=O)c3ccccc3CC2c2ccccc21` (stereo unspecified), for which the TGI in [1], in assay [3], in assay [4], in [5], in [6] and in assay [8] was over 100 µM in each case. The TGI in assay [9] is over 100 µM; in assay [10], 81.6 µM.
With `Cc1nn[n-]n1.N.N.N.N.N.[Cl-].[Co+3]`, the GI50 in assay [2], in assay [3], in [4], in [5], in [6] and in [7] was over 100 µM throughout. Besides, the GI50 in assay [8], in [9] and in assay [10] was over 100 µM each time. The TGI in assay [2], in [3], in assay [4], in assay [5], in [6] and in [7] was over 100 µM throughout. Moreover, the TGI in [8], in [9] and in assay [10] was over 100 µM in each case.
For `CCC1CC2C(=O)N(c3ccccc3)C(=O)C2c2[nH]c3ccccc3c21` (stereo unspecified), the TGI in assay [1] was 67.7 µM; in [3], 44.9 µM; in assay [4], 80 µM; in [6], over 100 µM; in [7] it was over 100 µM; in [8], 71.1 µM. Further, the TGI was 75.1 µM in assay [9] and over 100 µM in assay [10].
On to `CCCNC(=O)C1C(=O)C(=O)N(CCC)C1=O` (stereo unspecified), for which the TGI in assay [1], in assay [2], in [3], in assay [4], in assay [5] and in [6] was over 100 µM in each case. Further, the TGI in assay [7], in assay [8] and in assay [9] was over 100 µM each time.
Regarding `O=C(CCC(=O)Nc1ccc(Cl)c(Cl)c1)CC(=O)c1ccc(Br)cc1`, the TGI in assay [1], in assay [2], in [3], in assay [4], in [5] and in assay [6] was over 100 µM each time. The TGI in assay [7], in assay [8] and in assay [9] was over 100 µM in each case.
Take `COc1ccc(NC(=O)CSC2=C(Nc3cccc(Br)c3)C(=O)N(Cc3ccccc3)C2=O)cc1Cl`: the GI50 in assay [2] is over 100 µM; in assay [3] it was over 100 µM; in assay [4], 21.5 µM; in [5], over 100 µM; in assay [6], over 100 µM; in [7], 16.8 µM. The GI50 was over 100 µM in assay [8], over 100 µM in [9] and 3.02 µM in assay [10]. The TGI in [2], in assay [3], in [4], in assay [5], in [6] and in [7] was over 100 µM throughout. Also, the TGI is over 100 µM in assay [8], over 100 µM in assay [9] and 24.3 µM in assay [10].
On to `COC(=O)C1C(O)CCC2CN3CCc4c([nH]c5ccccc45)C3CC21` (stereo unspecified), for which the TGI in assay [1], in [2], in [3], in assay [4], in assay [5] and in assay [6] was over 100 µM throughout. For the same compound, the TGI in assay [7], in [8] and in assay [9] was over 100 µM in each case. Also, the GI50 in assay [2] and in assay [9] was over 100 µM in each case.
For the compound `COc1ccc(NC(=O)/C(=C/c2ccccc2)C(C)=O)cc1`, the TGI in [1] was 36.7 µM; in assay [2], 29.2 µM; in assay [3], 29.9 µM; in assay [4], 34.3 µM; in assay [5], 28.7 µM; in assay [6], 26.1 µM. Also, the figures for the TGI in assay [7], in assay [8] and in assay [9] were 28.2 µM, 31.4 µM and 33.4 µM, respectively.
Consider `COc1ccc(-c2cs/c(=N\N=C\c3ccc(O)cc3O)n2/N=C/c2ccc(O)cc2O)cc1`, for which the GI50 in [1] was 1.75 µM; in assay [3], 1.75 µM; in assay [4], 2.36 µM; in assay [5], 1.9 µM; in [6] it was 1.88 µM; in [7], 1.69 µM. Further, the GI50 in assay [8] is 2.18 µM; in assay [9], 2.46 µM; in assay [10], 2.53 µM. Further, the TGI in [1] turned out to be 3.81 µM; in assay [3], 3.67 µM; in assay [4], 6.13 µM; in [5], 3.75 µM; in [6] it was 4.15 µM; in assay [7], 3.07 µM. The figures for the TGI in [8], in [9] and in assay [10] were 5.35 µM, 6.84 µM and over 100 µM, respectively.
As to `S=c1snc2n1CCN2`, the GI50 in assay [1] is 65 µM; in assay [2] it was over 100 µM; in assay [3], over 100 µM; in assay [4] it was over 100 µM; in assay [5] it was over 100 µM; in assay [6] it was 64.4 µM. For the same compound, the GI50 in assay [7] was 58.2 µM; in assay [8], 10.6 µM; in [9], over 100 µM. For the same compound, the TGI in [1], in [2], in [3], in [4], in [5] and in assay [6] was over 100 µM each time. Also, the TGI in [7] was over 100 µM; in assay [8] it was 86.8 µM; in [9] it was over 100 µM.
On to `CC[C@H](Nc1ncnc2nc[nH]c12)c1nc2cccc(F)c2c(=O)n1-c1ccccc1`, for which the GI50 was 1.3 µM in [1]; 9.94 µM in assay [2]; 10.2 µM in [3]; 19.2 µM in assay [4]; 19.7 µM in [5]; 13.7 µM in [6]. Besides, the GI50 in [7] is 26.1 µM; in assay [8] it was 7.4 µM; in [9] it was 39.3 µM. Further, the TGI in assay [1] was 13 µM; in [2], over 100 µM; in assay [3] it was over 100 µM; in assay [4] it was over 100 µM; in assay [5], over 100 µM; in assay [6] it was over 100 µM. The TGI in assay [7], in [8] and in assay [9] was over 100 µM throughout.
`N/N=C1\C(=O)N(C2CCCCCC2)C(=O)C1C(=O)NC1CCCCCC1` (stereo unspecified): the TGI in assay [1] was over 100 µM; in assay [3] it was over 100 µM; in assay [4], over 100 µM; in assay [5], 56.1 µM; in assay [6], over 10 µM; in assay [7], 43.6 µM. Also, the TGI in [8] was 65.6 µM; in assay [9] it was over 100 µM.
With `O=C(Cc1nc2ccccc2c(=O)n1-c1ccccc1Cl)c1ccncc1`, the TGI in [1], in assay [2], in assay [3], in assay [4], in [5] and in assay [6] was over 100 µM each time. Also, the TGI in assay [7], in [8] and in [9] was over 100 µM throughout.
With `N#Cc1ccccc1C(Cl)(Cl)c1cnccn1`, the TGI was over 100 µM in assay [1]; over 100 µM in [2]; over 100 µM in assay [4]; over 100 µM in assay [5]; over 100 µM in assay [6]; 87.3 µM in assay [7]. Besides, the TGI in [8], in assay [9] and in assay [10] was over 100 µM each time.
In the case of `CCC[CH2][Sn]([Cl])([Cl])[CH2]CCC`, the GI50 is 0.295 µM in [2]; 1.03 µM in [3]; 0.457 µM in assay [4]; 0.87 µM in assay [5]; 0.363 µM in assay [6]; 0.509 µM in [7]. Further, the GI50 is 0.966 µM in [8], 0.948 µM in [9] and 0.296 µM in assay [10]. In addition, the TGI stood at 1.44 µM in [2]; 2.32 µM in assay [3]; 1.77 µM in assay [4]; 2.19 µM in assay [5]; 1.36 µM in assay [6]; 1.55 µM in assay [7]. Moreover, the TGI was 2.25 µM in assay [8], 2.17 µM in [9] and 1.21 µM in assay [10].
On to `CCc1ccc(NC(=O)NC(=O)c2ccccc2[N+](=O)[O-])cc1Oc1ncc(Cl)cn1`, for which the TGI is 9.1 µM in assay [1]; 13.9 µM in assay [3]; over 16.9 µM in [4]; over 4.64 µM in [6]; 0.0327 µM in assay [7]; over 100 µM in assay [8]. In addition, the TGI in assay [9] and in [10] was over 100 µM in each case.
Turning to `CCOC(=O)Nc1nc2ccc(OC)cc2s1`, the GI50 in [2], in [3], in [4], in assay [5], in assay [6] and in [7] was over 100 µM in each case. The GI50 was over 100 µM in [8], over 100 µM in assay [9] and 8.14 µM in assay [10]. Besides, the TGI in [2], in assay [3], in [4], in [5], in assay [6] and in [7] was over 100 µM each time. In addition, the TGI in assay [8], in assay [9] and in assay [10] was over 100 µM each time.
As for `COc1cc(C2SCCCCCCCCCCSC(c3ccc(O)c(OC)c3)SCCCCCCCCCCS2)ccc1O` (stereo unspecified), the TGI in assay [1], in assay [2], in assay [4], in assay [6], in assay [7] and in assay [8] was over 100 µM each time. In addition, the TGI in assay [9] and in [10] was over 100 µM throughout.
For `CCOC(=O)C(=O)Nc1ccccc1C`, the TGI in [1], in [2], in [4], in assay [5], in assay [6] and in assay [7] was over 100 µM in each case. Also, the TGI in [8] and in assay [9] was over 100 µM each time.
Regarding `CC1=C[C@H]2c3c([nH]c4ccccc34)C(c3c[nH]c4ccccc34)[C@H]2CC1` (stereo partly specified), the TGI in assay [1] was 35.8 µM; in assay [2], 26.3 µM; in assay [5] it was 25.6 µM; in [6], 26 µM; in [7], 28 µM; in assay [8] it was 12.9 µM.
